Assay results as given in paper PMC9393165 (Scientific Reports, 2022).
Where two headings read alike, the source gives them in different places. Marks after values point to notes of the source that are not given here.

Test: Tacrolimus whole blood concentration, trough and 12-h AUC after kidney transplantation (chemiluminescent microparticle immunoassay)
Type: in vivo, human
Conditions: for C0 / AUC: human, whole blood, oral
Procedure: This prospective, randomized, double-blind, placebo-controlled study was carried out in four parallel groups of KTRs. […] The randomization schedule was concealed in sequentially numbered, sealed, opaque envelopes, and kept in a locked cabinet in the central pharmacy of Siriraj Hospital. Envelopes were opened sequentially only after enrollment of each participant. The diltiazem and placebo containers, which were issued with a medication number and assigned to consecutive patients in a sequential order, were tamper-proof, equal in weight, and similar in appearance. A pharmacist not involved in the care of the study patients did the randomization, distributed the study agents, and held the trial codes, which were disclosed after the study. Physicians, nurses, other care providers, and the study patients were unaware of the group allocations.
All participants received oral, immediate-release tacrolimus (Prograf®; Astellas, Kerry, Ireland). According to Siriraj Hospital protocol, the initial dose (0.05 mg/kg every 12 h) of tacrolimus was started 2 days before KT (day − 2) and subsequently adjusted after KT based on efficacy and toxicity and to maintain morning trough concentrations of 7 to 10 ng/mL in standard risk patients and 10 to 12 ng/mL in high-risk patients during the first week after transplantation. Participants also received either mycophenolate mofetil (Cellcept®; F Hoffmann-La Roche Ltd, Basel, Switzerland or Immucept®; Intas Pharmaceuticals Ltd., Gujarat, India) or mycophenolate sodium (Myfortic®; Novartis Pharma Stein, Switzerland for Novartis AG, Basel, Switzerland) at the dosage equivalent to 2 g/day of mycophenolate mofetil. A tapered corticosteroid regimen was administered consisting of an intravenous bolus of 500 mg of methylprednisolone (Solu-medrol®; Novartis Pharma Stein, Switzerland for Novartis AG, Basel, Switzerland) on day 0, 250 mg on day 1, 125 mg on day 2 followed by 40 mg/day of prednisolone on day 4 after KT. The subsequent prednisolone doses were gradually tapered thereafter. Induction therapy with basiliximab (Simulect®; Novartis Pharma AG, Basel, Switzerland) was allowed.
All patients received a fixed dose of omeprazole 40 mg/day.
[…] Samples were collected in EDTA tubes and stored at 4 degrees Celsius until analysis. Whole blood tacrolimus concentrations were determined within the same day of blood collection by using a chemiluminescent microparticle immunoassay method with […] system® i2000 (Abbott, Abbott Diagnostic, USA). The method was linear in the concentration range up to 30 ng/mL, the limits of quantification were 0.8 ng/mL, and the coefficient of variation of within run precision and between run precision were less than 10%. Mean recovery was 100 ± 10% according to the manufacturer’s information.
For calculation of AUC/D and C0/D, values of AUC and C0 were dose-adjusted by dividing the observed values by the dose recorded on the day of blood collection. Early-morning blood pressures were measured on the same day of blood collection for pharmacokinetic analysis by a ward nurse as part of a routine examination, during rest in a seated position with a calibrated and well-maintained automatic sphygmomanometer. Delayed graft function (DGF) was defined as failure of the kidney graft to function immediately, with the need for dialysis in the first 7 days post-KT. Episode of biopsy-proven acute rejection (BPAR) during 3 months post-KT was diagnosed based on histologic findings in indication kidney graft biopsy according to Banff 2015 criteria.

[1] = day 1 post-transplantation, CYP3A5 expressers, diltiazem 30 mg every 12 h (n = 11), median (IQR)
[2] = day 1 post-transplantation, CYP3A5 expressers, placebo (n = 12), median (IQR)
[3] = day 1 post-transplantation, CYP3A5 non-expressers, diltiazem 30 mg every 12 h (n = 9), median (IQR)
[4] = day 1 post-transplantation, CYP3A5 non-expressers, placebo (n = 8), median (IQR)
[5] = day 3 post-transplantation, CYP3A5 expressers, diltiazem 30 mg every 12 h (n = 11), median (IQR)
[6] = day 3 post-transplantation, CYP3A5 expressers, placebo (n = 12), median (IQR)
[7] = day 3 post-transplantation, CYP3A5 non-expressers, diltiazem 30 mg every 12 h (n = 9), median (IQR)
[8] = day 3 post-transplantation, CYP3A5 non-expressers, placebo (n = 8), median (IQR)
[9] = day 7, all 40 KTRs, median (IQR)
[10] = day 7 post-transplantation, CYP3A5 expressers, diltiazem 30 mg every 12 h (n = 11), median (IQR)
[11] = day 7 post-transplantation, CYP3A5 expressers, placebo (n = 12), median (IQR)
[12] = day 7 post-transplantation, CYP3A5 non-expressers, diltiazem 30 mg every 12 h (n = 9), median (IQR)
[13] = day 7 post-transplantation, CYP3A5 non-expressers, placebo (n = 8), median (IQR)

C0/D [1]: 3.3 (2.6, 4.5) ng/mL per mg
C0/Daily dose [1]: 1.6 (1.3, 2.3) ng/mL per mg/day
C0/D [2]: 2.2 (1.3, 2.8) ng/mL per mg
C0/Daily dose [2]: 1.1 (0.6, 1.4) ng/mL per mg/day
C0/D [3]: 3.8 (2.7, 7.2)^c ng/mL per mg
C0/Daily dose [3]: 1.9 (1.3, 3.6)^c ng/mL per mg/day
C0/D [4]: 3.8 (2.0, 5.0) ng/mL per mg
C0/Daily dose [4]: 1.9 (1.0, 2.5) ng/mL per mg/day
C0/D [5]: 3.7 (2.4, 4.5)^c ng/mL per mg
C0/Daily dose [5]: 1.8 (1.2, 2.2)^c ng/mL per mg/day
C0/D [6]: 1.8 (1.1, 2.0) ng/mL per mg
C0/Daily dose [6]: 0.9 (0.6, 1.0) ng/mL per mg/day
C0/D [7]: 6.4 (4.1, 8.8)^c ng/mL per mg
C0/Daily dose [7]: 3.2 (2.0, 4.4)^c ng/mL per mg/day
C0/D [8]: 3.4 (2.7, 5.8)^c ng/mL per mg
C0/Daily dose [8]: 1.7 (1.4, 2.9)^c ng/mL per mg/day
AUC/D [9]: 44.9 (37.1, 65.3) ng*h/mL per mg
C0/D [9]: 2.5 (1.8, 3.7) ng/mL per mg
C0, range (day 7, all 40 KTRs, range): 5.0 to 13.2 ng/mL
AUC/D (dose-adjusted area under the 12-h curve) (day 7 post-transplantation, CYP3A5 expressers, diltiazem 30 mg every 12 h (EXdtz, n = 11), median (IQR)): 43.6 (37.0, 50.5) ng*h/mL per mg
AUC/D (dose-adjusted area under the 12-h curve) (day 7 post-transplantation, CYP3A5 expressers, diltiazem 30 mg every 12 h (EXdtz, n = 11), median (IQR), listed as tacrolimus): 43.6 ng*h/mL per mg
C0/D [10]: 1.9 (1.8, 3.2) ng/mL per mg
C0/Daily dose [10]: 1.0 (0.9, 1.6) ng/mL per mg/day
AUC/D (dose-adjusted area under the 12-h curve) (day 7 post-transplantation, CYP3A5 expressers, placebo (EXplb, n = 12), median (IQR)): 34.9 (31.6, 38.5) ng*h/mL per mg
AUC/D (dose-adjusted area under the 12-h curve) (day 7 post-transplantation, CYP3A5 expressers, placebo (EXplb, n = 12), median (IQR), listed as tacrolimus): 34.9 ng*h/mL per mg
C0/D [11]: 2.0 (1.4, 2.5) ng/mL per mg
C0/Daily dose [11]: 1.0 (0.7, 1.2) ng/mL per mg/day
AUC/D (dose-adjusted area under the 12-h curve) (day 7 post-transplantation, CYP3A5 non-expressers, diltiazem 30 mg every 12 h (NEdtz, n = 9), median (IQR)): 71.1 (54.9, 100.7)^c ng*h/mL per mg
AUC/D (dose-adjusted area under the 12-h curve) (day 7 post-transplantation, CYP3A5 non-expressers, diltiazem 30 mg every 12 h (NEdtz, n = 9), median (IQR), listed as tacrolimus): 71.1 ng*h/mL per mg
C0/D [12]: 4.2 (2.8, 6.0)^c ng/mL per mg
C0/Daily dose [12]: 2.1 (1.4, 3.0)^c ng/mL per mg/day
AUC/D (dose-adjusted area under the 12-h curve) (day 7 post-transplantation, CYP3A5 non-expressers, placebo (NEplb, n = 8), median (IQR)): 49.4 (43.0, 62.9)^c ng*h/mL per mg
AUC/D (dose-adjusted area under the 12-h curve) (day 7 post-transplantation, CYP3A5 non-expressers, placebo (NEplb, n = 8), median (IQR), listed as tacrolimus): 49.4 ng*h/mL per mg
C0/D [13]: 2.8 (2.5, 3.4) ng/mL per mg
C0/Daily dose [13]: 1.4 (1.2, 1.7) ng/mL per mg/day
C0 (30 mg, day 1 post-transplantation, CYP3A5 expressers, diltiazem 30 mg every 12 h (n = 11), mean ± SD): 10.9 ± 3.7 ng/mL
C0 (30 mg, day 1 post-transplantation, CYP3A5 non-expressers, diltiazem 30 mg every 12 h (n = 9), mean ± SD): 13.1 ± 7.4 ng/mL
C0 (30 mg, day 3 post-transplantation, CYP3A5 expressers, diltiazem 30 mg every 12 h (n = 11), median (IQR)): 9.3 ng/mL
C0 (30 mg, day 3 post-transplantation, CYP3A5 non-expressers, diltiazem 30 mg every 12 h (n = 9), median (IQR)): 11.9 ng/mL
C0 (30 mg, day 7 post-transplantation, CYP3A5 expressers, diltiazem 30 mg every 12 h (n = 11), mean ± SD): 7.4 ± 2.1 ng/mL
AUC (30 mg, day 7 post-transplantation, CYP3A5 expressers, diltiazem 30 mg every 12 h (n = 11), mean ± SD, read-out: AUC (area under the concentration over 12-h curve)): 138 ± 29.6 ng·h/mL
C0 (30 mg, day 7 post-transplantation, CYP3A5 non-expressers, diltiazem 30 mg every 12 h (n = 9), mean ± SD): 8.4 ± 1.8 ng/mL
AUC (30 mg, day 7 post-transplantation, CYP3A5 non-expressers, diltiazem 30 mg every 12 h (n = 9), mean ± SD, read-out: AUC (area under the concentration over 12-h curve)): 148 ± 25.5 ng·h/mL
C0 (day 1 post-transplantation, CYP3A5 expressers, placebo (n = 12), mean ± SD): 7 ± 3.2 ng/mL
C0 (day 1 post-transplantation, CYP3A5 non-expressers, placebo (n = 8), mean ± SD): 12.6 ± 7.2 ng/mL
C0 [6]: 6.2 ng/mL
C0 [8]: 9.4 ng/mL
C0 (day 7, all 40 KTRs, mean ± SD): 8.4 ± 2.1 ng/mL
AUC (day 7, all 40 KTRs, mean ± SD, read-out: AUC): 154 ± 33.2 ng·h/mL
AUC (day 7, all 40 KTRs, range, read-out: AUC, range): 96.9 to 233 ng·h/mL
C0 (day 7 post-transplantation, CYP3A5 expressers, placebo (n = 12), mean ± SD): 9.2 ± 1.6 ng/mL
AUC (day 7 post-transplantation, CYP3A5 expressers, placebo (n = 12), mean ± SD, read-out: AUC (area under the concentration over 12-h curve)): 169 ± 32.2 ng·h/mL
C0 (day 7 post-transplantation, CYP3A5 non-expressers, placebo (n = 8), mean ± SD): 8.6 ± 2.5 ng/mL
AUC (day 7 post-transplantation, CYP3A5 non-expressers, placebo (n = 8), mean ± SD, read-out: AUC (area under the concentration over 12-h curve)): 159 ± 40.7 ng·h/mL
Structure (SMILES): C=CC[C@@H]1/C=C(\C)C[C@H](C)C[C@H](OC)[C@H]2O[C@@](O)(C(=O)C(=O)N3CCCC[C@H]3C(=O)O[C@H](/C(C)=C/[C@@H]3CC[C@@H](O)[C@H](OC)C3)[C@H](C)[C@@H](O)CC1=O)[C@H](C)C[C@@H]2OC [Tacrolimus]
